Assay results published in ChEMBL document CHEMBL3826884, “Synthesis and biological evaluation of 3-substituted 5-benzylidene-1-methyl-2-thiohydantoins as potent NADPH oxidase (NOX) inhibitors” (Bioorg Med Chem, 2016).

Legend:
NADPH oxidase 1 = molecular target: T1, NADPH oxidase 1 (Homo sapiens, UniProt Q9Y5S8); test: Inhibition of human NOX1 expressed in Drosophila DUOX knockdown model assessed as decrease in ROS production by lucigenin chemiluminescence assay
T1 sequence (Q9Y5S8 whole entry): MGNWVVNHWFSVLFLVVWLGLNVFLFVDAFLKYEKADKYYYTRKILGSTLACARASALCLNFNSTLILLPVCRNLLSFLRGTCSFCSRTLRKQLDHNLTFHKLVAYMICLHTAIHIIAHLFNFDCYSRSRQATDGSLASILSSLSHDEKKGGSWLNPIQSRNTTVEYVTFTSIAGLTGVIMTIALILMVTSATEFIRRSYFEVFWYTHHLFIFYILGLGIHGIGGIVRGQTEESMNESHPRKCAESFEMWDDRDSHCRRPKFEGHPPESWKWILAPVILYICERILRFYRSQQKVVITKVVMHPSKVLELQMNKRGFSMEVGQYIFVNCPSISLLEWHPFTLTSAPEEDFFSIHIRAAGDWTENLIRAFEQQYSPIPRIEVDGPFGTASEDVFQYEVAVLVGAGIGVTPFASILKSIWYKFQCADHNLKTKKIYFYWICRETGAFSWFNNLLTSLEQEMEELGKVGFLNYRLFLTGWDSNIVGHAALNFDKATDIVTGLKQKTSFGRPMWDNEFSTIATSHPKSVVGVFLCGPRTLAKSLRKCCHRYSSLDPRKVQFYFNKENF

Homo sapiens = species: Homo sapiens; test: Selectivity ratio of Ki for human NOX1 expressed in Drosophila DUOX knockdown model to Ki for human NOX4 expressed in Drosophila DUOX knockdown model
NADPH oxidase 4 = molecular target: T2, NADPH oxidase 4 (Homo sapiens, UniProt Q9NPH5); test: Inhibition of human NOX4 expressed in Drosophila DUOX knockdown model assessed as decrease in ROS production by lucigenin chemiluminescence assay
T2 sequence (Q9NPH5 whole entry): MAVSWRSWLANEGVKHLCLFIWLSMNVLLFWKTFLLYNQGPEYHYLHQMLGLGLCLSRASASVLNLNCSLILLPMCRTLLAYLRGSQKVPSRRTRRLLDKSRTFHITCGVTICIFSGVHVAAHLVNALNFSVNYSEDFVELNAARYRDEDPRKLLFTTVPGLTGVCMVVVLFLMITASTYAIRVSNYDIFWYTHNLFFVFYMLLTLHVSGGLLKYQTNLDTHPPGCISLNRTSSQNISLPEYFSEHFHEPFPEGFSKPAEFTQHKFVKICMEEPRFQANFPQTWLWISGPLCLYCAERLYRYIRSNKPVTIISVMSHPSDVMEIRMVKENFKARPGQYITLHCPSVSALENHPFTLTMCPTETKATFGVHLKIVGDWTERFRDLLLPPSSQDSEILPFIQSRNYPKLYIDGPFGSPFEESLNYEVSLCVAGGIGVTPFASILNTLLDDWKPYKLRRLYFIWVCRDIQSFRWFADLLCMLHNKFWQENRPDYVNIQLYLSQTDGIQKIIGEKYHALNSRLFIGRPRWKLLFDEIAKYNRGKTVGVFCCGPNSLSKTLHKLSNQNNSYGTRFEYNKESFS

| SMILES | Ki (NADPH oxidase 1) | Ratio Ki (Homo sapiens) | Ki (NADPH oxidase 4) |
| --- | --- | --- | --- |
| CN1C(=S)N(c2ccc3c(c2)CCC3)C(=O)/C1=C/c1cccc(O)c1O | 6.63 µM | 2.8 | 2.36 µM |
| CN1C(=S)N(c2ccccc2)C(=O)/C1=C/c1ccc(N(C)C)cc1 | 1.95 µM | 2.2 | 0.88 µM |
| CCc1ccc(N2C(=O)/C(=C/c3cccc(O)c3O)N(C)C2=S)cc1 | 27.9 µM | – | 26.4 µM |
| CCc1ccc(N2C(=O)/C(=C/c3ccc(O)cc3O)N(C)C2=S)cc1 | 8.4 µM | 3.5 | 2.39 µM |
| CN1C(=S)N(C2CCCCC2)C(=O)/C1=C/c1ccc(O)cc1O | 26 µM | – | 37.6 µM |
| CCc1ccc(N2C(=O)/C(=C/c3ccc(N(C)C)cc3)N(C)C2=S)cc1 | 4.39 µM | – | 2.63 µM |
| Cc1ccc(N2C(=O)/C(=C/c3ccc(N(C)C)cc3)N(C)C2=S)cc1 | 1.02 µM | – | 2.33 µM |
| CN1C(=S)N(c2cccc(Cl)c2)C(=O)/C1=C/c1ccc(O)cc1O | 34.5 µM | – | 33.8 µM |
| CN1C(=S)N(c2ccccc2)C(=O)/C1=C/c1ccc(O)cc1O | 33.8 µM | – | 27.7 µM |
| CN1C(=S)N(C2CCCCC2)C(=O)/C1=C/c1cccc(O)c1O | 7.39 µM | – | 6.35 µM |
| CN1C(=S)N(c2ccc3c(c2)CCC3)C(=O)/C1=C/c1ccc(O)cc1O | 6.58 µM | – | 6.83 µM |
| CN1C(=S)N(c2ccc3c(c2)CCC3)C(=O)/C1=C/c1ccc(N(C)C)cc1 | 8.04 µM | – | 13.1 µM |
| CN1C(=S)N(c2cccc(Cl)c2)C(=O)/C1=C/c1cccc(O)c1O | 7.65 µM | – | 9.31 µM |
| CN1C(=S)N(c2ccccc2)C(=O)/C1=C/c1cccc(O)c1O | 49.7 µM | – | 24 µM |
| Cc1ccc(N2C(=O)/C(=C/c3cccc(O)c3O)N(C)C2=S)cc1 | 50.3 µM | – | 27 µM |
| CN1C(=S)N(C2CCCCC2)C(=O)/C1=C/c1ccc(N(C)C)cc1 | 12.3 µM | – | 35.6 µM |
| Cc1ccc(N2C(=O)/C(=C/c3ccc(O)cc3O)N(C)C2=S)cc1 | 27.1 µM | – | 34.6 µM |
| CN1C(=S)N(c2cccc(Cl)c2)C(=O)/C1=C/c1ccc(N(C)C)cc1 | 0.35 µM | – | 0.84 µM |
